Read-outs that look alike come from different tables or passages of the source.
Experiments:
[1] = PK of single agents vs fixed dose combinations (FDC), single oral dose in healthy volunteers; type: in vivo, human; conditions: for Cmax / AUC(0-t) / AUC(0-inf) / Tmax: human, plasma, oral; for Cmax: read-out: Cmax (mean ± SD); for AUC(0-t): read-out: AUClast (mean ± SD); for AUC(0-inf): read-out: AUC∞ (mean ± SD); for Tmax: read-out: tmax (median [range])
Description: SMV (100 mg), ODV (50 mg), and Compound (III) (800 mg) were administered as three different formulations or together as single doses in vivo to healthy volunteers. The arms of the study included: • Arm 1 (Reference Arm): Single oral doses of single agents, one SMV 100-mg capsule, one ODV 50-mg tablet as granule layered solid dispersion with copovidone and poloxamers, and two Compound (III) 400-mg tablets, administered together. • Arm 2: Single oral dose of fixed dose combination (FDC02): SMV 100 mg+ODV 50 mg as a spray dried solid dispersion with HPMC-AS L in a ratio ODV/HPMC-AS L 1/1 w/w+Compound (III) 800 mg • Arm 3: Single oral dose of fixed dose combination (FDC04): SMV 100 mg+ODV 50 mg as a spray dried solid dispersion with HPMC-AS L in a ratio ODV/HPMC-AS L 1/3 w/w+Compound (III) 800 mg • Arm 4: Single oral dose of fixed dose combination (FDC01): SMV 100 mg+ODV 50 mg as a spray dried solid dispersion with copovidone and poloxamers+Compound (III) 800 mg
PK parameters, including Cmax, tmax, AUClast, and AUC∞ were measured for Compound (III), ODV, SMV, and metabolites Compound A-I and Compound A-3 for each Arm of the study. Arms that included fixed dose combinations (FDC) (Arm 2, Arm 3, and Arm 4) were then compared to a single oral dose (Arm 1, the reference Arm). Table 9, Table 10, Table 11, Table 12 and Table 13 display relevant PK parameters and FIG. 9, FIG. 10, FIG. 11, FIG. 12, and FIG. 13 depict the plasma concentration over time of SMV, ODV, Compound A-1, and Compound A-3 for each Arm of the study.

[2] = test system: CYP (cytochrome P450 enzymes); assay: CYP inhibition in vitro; conditions: on any CYP
[3] = target: P-gp (Homo sapiens, UniProt P08183); conditions: in vitro; cited from earlier work
[4] = target: T1, OATP1B1 (Homo sapiens, UniProt Q9Y6L6); conditions: in vitro, cited from earlier work
T1 sequence (Q9Y6L6 1-691): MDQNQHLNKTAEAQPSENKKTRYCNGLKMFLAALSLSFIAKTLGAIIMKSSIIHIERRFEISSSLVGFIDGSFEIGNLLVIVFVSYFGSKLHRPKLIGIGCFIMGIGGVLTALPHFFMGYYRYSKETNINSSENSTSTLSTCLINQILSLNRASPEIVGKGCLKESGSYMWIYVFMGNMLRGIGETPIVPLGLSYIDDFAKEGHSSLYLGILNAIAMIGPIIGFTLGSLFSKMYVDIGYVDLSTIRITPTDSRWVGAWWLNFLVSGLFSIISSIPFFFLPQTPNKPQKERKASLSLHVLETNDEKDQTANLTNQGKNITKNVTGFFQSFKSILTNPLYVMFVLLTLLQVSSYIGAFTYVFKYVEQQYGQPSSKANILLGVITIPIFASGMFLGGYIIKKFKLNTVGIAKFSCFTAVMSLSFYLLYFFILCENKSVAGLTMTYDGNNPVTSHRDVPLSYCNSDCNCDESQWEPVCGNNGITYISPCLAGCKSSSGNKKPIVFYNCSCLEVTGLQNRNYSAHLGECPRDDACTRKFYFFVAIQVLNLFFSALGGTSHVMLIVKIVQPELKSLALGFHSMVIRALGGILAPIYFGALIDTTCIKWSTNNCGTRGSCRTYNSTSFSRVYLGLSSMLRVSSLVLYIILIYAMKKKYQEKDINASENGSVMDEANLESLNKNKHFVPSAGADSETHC

[5] = Phase-1 drug-drug interaction study in healthy volunteers (Compound (III) 800 mg, SMV 150 mg, Odalasvir 150 mg loading then 50 mg, once daily): plasma PK; type: in vivo, human; conditions: both, human, in vivo
Description: The following daily doses were employed:

[6] = Arm 1 (reference): single agents together
[7] = Arm 2 (FDC02) vs reference (Arm 1)
[8] = Arm 3 (FDC04) vs reference (Arm 1)
[9] = Arm 4 (FDC01) vs reference (Arm 1)

Sequence of P-gp (P08183 whole entry): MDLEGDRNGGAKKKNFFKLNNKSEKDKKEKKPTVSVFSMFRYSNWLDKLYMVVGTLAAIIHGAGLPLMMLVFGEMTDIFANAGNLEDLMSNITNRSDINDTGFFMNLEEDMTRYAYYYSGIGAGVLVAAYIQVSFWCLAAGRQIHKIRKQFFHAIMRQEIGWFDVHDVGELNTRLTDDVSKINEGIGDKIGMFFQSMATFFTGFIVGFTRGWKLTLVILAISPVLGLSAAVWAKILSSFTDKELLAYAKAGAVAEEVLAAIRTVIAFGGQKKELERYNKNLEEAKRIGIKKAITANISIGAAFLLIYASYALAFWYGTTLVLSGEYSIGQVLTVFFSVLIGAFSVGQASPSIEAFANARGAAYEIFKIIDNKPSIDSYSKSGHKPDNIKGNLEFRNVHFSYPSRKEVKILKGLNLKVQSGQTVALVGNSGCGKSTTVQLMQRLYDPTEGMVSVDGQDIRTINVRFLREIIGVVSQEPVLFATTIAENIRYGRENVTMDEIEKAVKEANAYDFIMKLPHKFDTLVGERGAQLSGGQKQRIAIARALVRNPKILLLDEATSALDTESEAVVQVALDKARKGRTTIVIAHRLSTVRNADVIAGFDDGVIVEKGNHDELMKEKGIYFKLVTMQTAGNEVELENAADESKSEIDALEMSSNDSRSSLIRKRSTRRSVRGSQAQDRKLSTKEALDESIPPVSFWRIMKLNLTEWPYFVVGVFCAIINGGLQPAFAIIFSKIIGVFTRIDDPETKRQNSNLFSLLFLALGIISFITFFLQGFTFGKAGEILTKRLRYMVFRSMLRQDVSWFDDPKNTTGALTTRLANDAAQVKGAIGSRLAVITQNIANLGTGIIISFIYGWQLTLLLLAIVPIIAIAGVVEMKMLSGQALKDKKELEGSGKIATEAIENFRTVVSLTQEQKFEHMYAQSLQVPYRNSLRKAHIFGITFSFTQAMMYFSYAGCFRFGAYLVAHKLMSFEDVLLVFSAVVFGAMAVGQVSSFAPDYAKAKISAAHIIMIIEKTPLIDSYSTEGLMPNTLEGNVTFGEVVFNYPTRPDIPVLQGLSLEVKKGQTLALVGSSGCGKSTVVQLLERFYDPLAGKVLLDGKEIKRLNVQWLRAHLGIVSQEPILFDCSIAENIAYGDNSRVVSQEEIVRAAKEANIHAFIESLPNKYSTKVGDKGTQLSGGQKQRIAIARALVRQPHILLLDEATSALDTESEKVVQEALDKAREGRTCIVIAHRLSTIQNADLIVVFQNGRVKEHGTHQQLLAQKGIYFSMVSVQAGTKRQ

In the case of `COc1ccc2c(O[C@@H]3C[C@H]4C(=O)N[C@]5(C(=O)NS(=O)(=O)C6CC6)C[C@H]5/C=C\CCCCN(C)C(=O)[C@@H]4C3)cc(-c3nc(C(C)C)cs3)nc2c1C` [SMV, Simeprevir, reference compound], the “t1/2term (mean ± SD)” value [1, 6] is reported as 8.3 ± 1.8 h, the “Least Square Means Ratio, AUClast” value [1, 7] is reported as 127.79% and the “Least Square Means Ratio, AUC∞” value [1, 7] is reported as 126.19%. The “Least Square Means Ratio, Cmax” value [1, 7] was 116.50%, the “t1/2term (mean ± SD)” value ([1]; Arm 2: FDC02) was 8.7 ± 2.3 h and the “Least Square Means Ratio, AUClast” value [1, 8] was 133.85%. For the same compound, the “Least Square Means Ratio, AUC∞” value [1, 8] was 132.28%, the “Least Square Means Ratio, Cmax” value [1, 8] was 115.24% and the “t1/2term (mean ± SD)” value ([1]; Arm 3: FDC04) was 9.1 ± 1.6 h. For the same compound, the “Least Square Means Ratio, AUClast” value [1, 9] was 117.50%, the “Least Square Means Ratio, AUC∞” value [1, 9] was 116.00% and the “Least Square Means Ratio, Cmax” value [1, 9] was 108.22%. For the same compound, the “t1/2term (mean ± SD)” value ([1]; Arm 4: FDC01) was 8.5 ± 1.5 h, the Cmax ([1]; Arm 1 (reference): single agents together, SMV 100-mg capsule, ODV 50-mg tablet, two Compound (III) 400-mg tablets) was 777 ± 225 ng/mL and the AUC(0-t) [1, 6] was 9420 ± 3380 ng·h/mL. It also gave an AUC(0-inf) [1, 6] of 9920 ± 3430 ng·h/mL, a Tmax [1, 6] of 6 h and a Cmax ([1]; Arm 2: FDC02, SMV 100 mg + ODV 50 mg (ODV/HPMC-AS L 1/1 w/w) + Compound (III) 800 mg) of 942 ± 431 ng/mL. It also gave an AUC(0-t) ([1]; Arm 2: FDC02) of 12700 ± 6260 ng·h/mL, an AUC(0-inf) ([1]; Arm 2: FDC02) of 13200 ± 6430 ng·h/mL and a Tmax ([1]; Arm 2: FDC02) of 6 h. For the same compound, the Cmax ([1]; Arm 3: FDC04, SMV 100 mg + ODV 50 mg (ODV/HPMC-AS L 1/3 w/w) + Compound (III) 800 mg) was 906 ± 321 ng/mL, the AUC(0-t) ([1]; Arm 3: FDC04) was 12900 ± 5830 ng·h/mL and the AUC(0-inf) ([1]; Arm 3: FDC04) was 13400 ± 6020 ng·h/mL. For the same compound, the Tmax ([1]; Arm 3: FDC04) was 6 h, the Cmax ([1]; Arm 4: FDC01, SMV 100 mg + ODV 50 mg (copovidone and poloxamers) + Compound (III) 800 mg) was 856 ± 318 ng/mL and the AUC(0-t) ([1]; Arm 4: FDC01) was 11600 ± 6300 ng·h/mL. The AUC(0-inf) ([1]; Arm 4: FDC01) was 12100 ± 6410 ng·h/mL, the Tmax ([1]; Arm 4: FDC01) was 6 h and the “CYP inhibition potential (in words)” value [2] was “limited”. For the same compound, the “P-gp inhibition (in words)” value [3] was “strong/moderate”, the “OATP1B1 inhibition (in words)” value [4] was “strong in vitro inhibition” and the IC50 ([4]; read-out: OATP1B1 inhibition IC50) was 300 nM. For the same compound, the AUC0-24 [5] was 41258 ng·h/mL and the Cmax [5] was 2957 ng/mL.

— patent US20170087174A1, “COMBINATION THERAPY REGIMEN FOR TREATMENT OF HCV” (JANSSEN PHARMACEUTICALS, INC., priority 2015, published 2017)
